Measured values as given in PMC5218480 (PLoS ONE, 2017).

Test system: MV-4-11 cells
Assay: Gene expression microarray analysis (Affymetrix PrimeView) and GSEA
Assay type: cell-based, human
Design: RFU PODN (11730768_x_at) / Fold change /veh PODN (11730768_x_at) / RFU LINC00158 (11744669_a_at) / Fold change /veh LINC00158 (11744669_a_at) / RFU DUSP10 (11751237_a_at) / Fold change /veh DUSP10 (11751237_a_at) / RFU ID3 (11757404_x_at) / Fold change /veh ID3 (11757404_x_at) / RFU PLEKHG5 (11737974_s_at) / Fold change /veh PLEKHG5 (11737974_s_at) / RFU LRRC4B (11730491_at) / Fold change /veh LRRC4B (11730491_at) / RFU GIMAP4 (11747438_a_at) / Fold change /veh GIMAP4 (11747438_a_at) / RFU KRT8 (11758183_x_at) / Fold change /veh KRT8 (11758183_x_at) / RFU CNN1 (11734310_a_at) / Fold change /veh CNN1 (11734310_a_at) / RFU VPS37D (11726825_at) / Fold change /veh VPS37D (11726825_at) / RFU C10orf10 (11716522_x_at) / Fold change /veh C10orf10 (11716522_x_at) / RFU KIR2DL2 /// KIR2DL4 /// KIR2DL5A /// KIR2DL5B /// KIR2DS1 /// KIR2DS2 /// KIR2DS3 /// KIR2DS4 /// KIR3DL3 /// KIR3DL3 /// KIR3DS1 (11738374_at) / Fold change /veh KIR2DL2 /// KIR2DL4 /// KIR2DL5A /// KIR2DL5B /// KIR2DS1 /// KIR2DS2 /// KIR2DS3 /// KIR2DS4 /// KIR3DL3 /// KIR3DL3 /// KIR3DS1 (11738374_at) / RFU C1QL1 (11718748_at) / Fold change /veh C1QL1 (11718748_at) / RFU TMPRSS4 (11747572_a_at) / Fold change /veh TMPRSS4 (11747572_a_at) / RFU HAMP (11756126_x_at) / Fold change /veh HAMP (11756126_x_at) / RFU RNFT2 (11725882_a_at) / Fold change /veh RNFT2 (11725882_a_at) / RFU NR4A2 (11747474_a_at) / Fold change /veh NR4A2 (11747474_a_at) / RFU ABCC12 (11746883_a_at) / Fold change /veh ABCC12 (11746883_a_at) / RFU TMEM136 (11760407_x_at) / Fold change /veh TMEM136 (11760407_x_at) / RFU CLDN22 /// WWC2 (11732394_at) / Fold change /veh CLDN22 /// WWC2 (11732394_at) / RFU HLA-DPB1 (11760878_x_at) / Fold change /veh HLA-DPB1 (11760878_x_at) / RFU SPINT1 (11716480_a_at) / Fold change /veh SPINT1 (11716480_a_at) / RFU GAP43 (11754022_s_at) / Fold change /veh GAP43 (11754022_s_at) / RFU A4GNT (11735810_at) / Fold change /veh A4GNT (11735810_at) / RFU PRB3 (11715151_x_at) / Fold change /veh PRB3 (11715151_x_at) / RFU TUBB4B (11761932_at) / Fold change /veh TUBB4B (11761932_at) / RFU CAPN14 (11732068_a_at) / Fold change /veh CAPN14 (11732068_a_at) / RFU TMCC2 (11721928_a_at) / Fold change /veh TMCC2 (11721928_a_at) / RFU IRGQ (11745062_a_at) / Fold change /veh IRGQ (11745062_a_at) / RFU FAM174B (11720279_a_at) / Fold change /veh FAM174B (11720279_a_at) / RFU TMPRSS4 (11748680_a_at) / Fold change /veh TMPRSS4 (11748680_a_at) / RFU FAM212B (11763350_a_at) / Fold change /veh FAM212B (11763350_a_at) / RFU PLEKHG5 (11743358_a_at) / Fold change /veh PLEKHG5 (11743358_a_at) / RFU ZSCAN30 (11745921_a_at) / Fold change /veh ZSCAN30 (11745921_a_at) / RFU CMKLR1 (11741424_a_at) / Fold change /veh CMKLR1 (11741424_a_at) / RFU LOC101060620 /// MAPK8IP1 (11723275_at) / Fold change /veh LOC101060620 /// MAPK8IP1 (11723275_at) / RFU SPTSSB (11747773_x_at) / Fold change /veh SPTSSB (11747773_x_at) / RFU PRSS12 (11739890_at) / Fold change /veh PRSS12 (11739890_at) / RFU BIN1 (11741810_x_at) / Fold change /veh BIN1 (11741810_x_at) / RFU WNT11 (11732464_a_at) / Fold change /veh WNT11 (11732464_a_at) / RFU C10orf10 (11716521_a_at) / Fold change /veh C10orf10 (11716521_a_at) / RFU C5orf56 (11738089_at) / Fold change /veh C5orf56 (11738089_at) / RFU CYB561 (11721691_x_at) / Fold change /veh CYB561 (11721691_x_at) / RFU ANKRD19P (11752326_a_at) / Fold change /veh ANKRD19P (11752326_a_at) / RFU OR2T12 /// OR2T33 /// OR2T8 (11738714_s_at) / Fold change /veh OR2T12 /// OR2T33 /// OR2T8 (11738714_s_at) / RFU VCAN (11748164_a_at) / Fold change /veh VCAN (11748164_a_at) / RFU JSRP1 (11732532_at) / Fold change /veh JSRP1 (11732532_at) / RFU KRTAP10-11 (11738290_x_at) / Fold change /veh KRTAP10-11 (11738290_x_at) / RFU MYO3A (11730013_a_at) / Fold change /veh MYO3A (11730013_a_at) / RFU EBF3 (11725865_a_at) / Fold change /veh EBF3 (11725865_a_at) / RFU CAMK2N1 (11719241_x_at) / Fold change /veh CAMK2N1 (11719241_x_at) / RFU C5orf56 (11738088_a_at) / Fold change /veh C5orf56 (11738088_a_at) / RFU OLFML3 (11715873_a_at) / Fold change /veh OLFML3 (11715873_a_at) / RFU LOC100653217 /// NTM (11731650_a_at) / Fold change /veh LOC100653217 /// NTM (11731650_a_at) / RFU MAPK11 (11762145_a_at) / Fold change /veh MAPK11 (11762145_a_at) / RFU FIZ1 (11724087_x_at) / Fold change /veh FIZ1 (11724087_x_at) / RFU OASL (11726364_x_at) / Fold change /veh OASL (11726364_x_at) / RFU SOX15 (11748057_x_at) / Fold change /veh SOX15 (11748057_x_at) / RFU CD79A (11719716_a_at) / Fold change /veh CD79A (11719716_a_at) / RFU HIST1H1D (11736915_at) / Fold change /veh HIST1H1D (11736915_at) / RFU CASKIN2 (11723855_a_at) / Fold change /veh CASKIN2 (11723855_a_at) / RFU LOC730098 (11760151_x_at) / Fold change /veh LOC730098 (11760151_x_at) / RFU OR4N2 (11742367_at) / Fold change /veh OR4N2 (11742367_at) / RFU PRRT2 (11749266_a_at) / Fold change /veh PRRT2 (11749266_a_at) / RFU SNX32 (11753110_a_at) / Fold change /veh SNX32 (11753110_a_at) / RFU CDHR5 (11726645_a_at) / Fold change /veh CDHR5 (11726645_a_at) / RFU RCAN1 (11760418_a_at) / Fold change /veh RCAN1 (11760418_a_at) / RFU FAM167A (11723789_a_at) / Fold change /veh FAM167A (11723789_a_at) / RFU FAM26E (11764081_at) / Fold change /veh FAM26E (11764081_at) / RFU ISYNA1 (11749810_s_at) / Fold change /veh ISYNA1 (11749810_s_at) / RFU ACY1 (11761880_at) / Fold change /veh ACY1 (11761880_at) / RFU 11764098_at / Fold change /veh 11764098_at / RFU SAMD14 (11745864_x_at) / Fold change /veh SAMD14 (11745864_x_at) / RFU NPB (11741838_a_at) / Fold change /veh NPB (11741838_a_at) / RFU TMPRSS6 (11731388_a_at) / Fold change /veh TMPRSS6 (11731388_a_at) / RFU KRTAP10-2 (11738614_at) / Fold change /veh KRTAP10-2 (11738614_at) / RFU ARHGAP8 /// PRR5-ARHGAP8 (11727945_x_at) / Fold change /veh ARHGAP8 /// PRR5-ARHGAP8 (11727945_x_at) / RFU KRTAP5-7 /// NADSYN1 (11734609_at) / Fold change /veh KRTAP5-7 /// NADSYN1 (11734609_at) / RFU RASL12 (11751679_a_at) / Fold change /veh RASL12 (11751679_a_at) / RFU CDKN2B (11736163_a_at) / Fold change /veh CDKN2B (11736163_a_at) / RFU PRF1 (11729649_at) / Fold change /veh PRF1 (11729649_at) / RFU, ZNF638 /// ZNF638-IT1 / Fold change vs veh, ZNF638 /// ZNF638-IT1 / RFU, PANK3 / Fold change vs veh, PANK3 / RFU, SH3YL1 / Fold change vs veh, SH3YL1 / RFU, ZEB2 / Fold change vs veh, ZEB2 / RFU, NRIP1 / Fold change vs veh, NRIP1 / RFU, PTTG1IP / Fold change vs veh, PTTG1IP / RFU, CAPN2 / Fold change vs veh, CAPN2 / RFU, MED14 / Fold change vs veh, MED14 / RFU, SNORA58 / Fold change vs veh, SNORA58 / RFU, C1orf63 / Fold change vs veh, C1orf63 / RFU, LRRFIP1 / Fold change vs veh, LRRFIP1 / RFU, NDUFAF7 / Fold change vs veh, NDUFAF7 / RFU, SLC12A2 / Fold change vs veh, SLC12A2 / RFU, IBTK / Fold change vs veh, IBTK / RFU, ESF1 / Fold change vs veh, ESF1 / Fold change vs veh, TMEM50B / RFU, TAOK1 / Fold change vs veh, TAOK1 / RFU, ACBD3 / Fold change vs veh, ACBD3 / RFU, TMA16 / Fold change vs veh, TMA16 / RFU, RWDD3 / Fold change vs veh, RWDD3 / RFU, BCAT1 / Fold change vs veh, BCAT1 / RFU, EDEM3 / Fold change vs veh, EDEM3 / RFU, TMEM33 / Fold change vs veh, TMEM33 / RFU, WDR75 / Fold change vs veh, WDR75 / RFU, AHCTF1 / Fold change vs veh, AHCTF1 / RFU, TFRC / Fold change vs veh, TFRC / RFU, ZDHHC17 / Fold change vs veh, ZDHHC17 / RFU, NOM1 / Fold change vs veh, NOM1 / RFU, ARL8B / Fold change vs veh, ARL8B / RFU, ZBTB11 / Fold change vs veh, ZBTB11 / RFU, TAMM41 / Fold change vs veh, TAMM41 / RFU, KIAA1704 /// LOC100996395 / Fold change vs veh, KIAA1704 /// LOC100996395 / RFU, ING1 / Fold change vs veh, ING1 / RFU, TRMT61B / Fold change vs veh, TRMT61B / RFU, FUBP3 / Fold change vs veh, FUBP3 / RFU, TP53 / Fold change vs veh, TP53 / RFU, TNKS2 / Fold change vs veh, TNKS2 / RFU, ZFP14 / Fold change vs veh, ZFP14 / RFU, ACTR2 / Fold change vs veh, ACTR2 / RFU, PPP3R1 / Fold change vs veh, PPP3R1 / RFU, PIK3R1 / Fold change vs veh, PIK3R1 / RFU, HNRNPA1 / Fold change vs veh, HNRNPA1 / RFU, RNF170 / Fold change vs veh, RNF170 / RFU, ZNF28 / Fold change vs veh, ZNF28 / RFU, RNGTT / Fold change vs veh, RNGTT / RFU, OGT / Fold change vs veh, OGT / RFU, BRD1 / Fold change vs veh, BRD1 / RFU, MARS / Fold change vs veh, MARS / RFU, ZNF655 / Fold change vs veh, ZNF655 / RFU, FAHD1 / Fold change vs veh, FAHD1 / RFU, BDP1 / Fold change vs veh, BDP1 / RFU, LRRCC1 / Fold change vs veh, LRRCC1 / RFU, ARID1A / Fold change vs veh, ARID1A / RFU, ZNF146 / Fold change vs veh, ZNF146 / RFU, ZNF330 / Fold change vs veh, ZNF330 / RFU, GPN3 / Fold change vs veh, GPN3 / RFU, C9orf123 / Fold change vs veh, C9orf123 / RFU, N4BP2L2 / Fold change vs veh, N4BP2L2 / RFU, ARFIP1 / Fold change vs veh, ARFIP1 / RFU, FAM179B / Fold change vs veh, FAM179B / RFU, BCL10 / Fold change vs veh, BCL10 / RFU, UHRF1BP1L / Fold change vs veh, UHRF1BP1L / RFU, BET1 / Fold change vs veh, BET1 / RFU, CNOT2 / Fold change vs veh, CNOT2 / RFU, ZNF268 / Fold change vs veh, ZNF268 / Fold change vs veh, ZNF507 / RFU, DGCR2 / Fold change vs veh, DGCR2 / RFU, WDSUB1 / Fold change vs veh, WDSUB1 / Fold change vs veh, HSP90B1 /// MIR3652 / RFU, ADSS / Fold change vs veh, ADSS / RFU, GK / Fold change vs veh, GK / RFU, ZNF148 / Fold change vs veh, ZNF148 / RFU, TAF9 / Fold change vs veh, TAF9 / RFU, SLC1A5 / Fold change vs veh, SLC1A5 / RFU, SLMO2 / Fold change vs veh, SLMO2 / RFU, ABCC4 / Fold change vs veh, ABCC4 / RFU, LOC101060439 /// RAP1B / Fold change vs veh, LOC101060439 /// RAP1B / RFU, RFX7 / Fold change vs veh, RFX7 / RFU, GTPBP10 / Fold change vs veh, GTPBP10 / RFU, CNEP1R1 / Fold change vs veh, CNEP1R1 / RFU, BIVM-ERCC5 /// ERCC5 / Fold change vs veh, BIVM-ERCC5 /// ERCC5 / RFU, ILF3 / Fold change vs veh, ILF3 / RFU 11762660_at / Fold change /veh 11762660_at / RFU VCAN (11757783_s_at) / Fold change /veh VCAN (11757783_s_at) / RFU DDX43 (11728927_at) / Fold change /veh DDX43 (11728927_at) / RFU KRT8 (11758188_x_at) / Fold change /veh KRT8 (11758188_x_at) / RFU NKD1 (11759106_at) / Fold change /veh NKD1 (11759106_at) / RFU SRD5A1 (11742802_a_at) / Fold change /veh SRD5A1 (11742802_a_at) / RFU TPSAB1 /// TPSB2 (11721975_s_at) / Fold change /veh TPSAB1 /// TPSB2 (11721975_s_at) / RFU GSTM3 (11746129_a_at) / Fold change /veh GSTM3 (11746129_a_at) / RFU IL23R (11737362_x_at) / Fold change /veh IL23R (11737362_x_at) / RFU TMEM51 (11727254_a_at) / Fold change /veh TMEM51 (11727254_a_at) / RFU PIWIL2 (11732686_x_at) / Fold change /veh PIWIL2 (11732686_x_at) / RFU ORM1 (11744905_x_at) / Fold change /veh ORM1 (11744905_x_at) / RFU CCDC152 (11743942_at) / Fold change /veh CCDC152 (11743942_at) / RFU ECM1 (11717891_a_at) / Fold change /veh ECM1 (11717891_a_at) / RFU IL23R (11748794_a_at) / Fold change /veh IL23R (11748794_a_at) / RFU TNFAIP8L3 (11732012_x_at) / Fold change /veh TNFAIP8L3 (11732012_x_at) / RFU MBOAT4 (11741988_at) / Fold change /veh MBOAT4 (11741988_at) / RFU 11764193_at / Fold change /veh 11764193_at / RFU TMEM53 (11763286_at) / Fold change /veh TMEM53 (11763286_at) / RFU MAGEB2 (11727129_at) / Fold change /veh MAGEB2 (11727129_at) / RFU TMEM200A (11744735_a_at) / Fold change /veh TMEM200A (11744735_a_at) / RFU CCDC152 (11751479_a_at) / Fold change /veh CCDC152 (11751479_a_at) / RFU FAM211A (11726209_a_at) / Fold change /veh FAM211A (11726209_a_at) / RFU RGS16 (11746705_a_at) / Fold change /veh RGS16 (11746705_a_at) / RFU VCAN (11755009_s_at) / Fold change /veh VCAN (11755009_s_at) / RFU RHOB (11743442_s_at) / Fold change /veh RHOB (11743442_s_at) / RFU RGS16 (11720943_a_at) / Fold change /veh RGS16 (11720943_a_at) / RFU RGS16 (11720944_at) / Fold change /veh RGS16 (11720944_at) / RFU, VPS4B / Fold change vs veh, VPS4B / RFU, CREB1 / Fold change vs veh, CREB1 / RFU, DNAJC13 / Fold change vs veh, DNAJC13 / RFU, GNAQ / Fold change vs veh, GNAQ / RFU, CDK5R1 / Fold change vs veh, CDK5R1 / RFU, ZRANB3 / Fold change vs veh, ZRANB3 / RFU, CUL4A / Fold change vs veh, CUL4A / RFU, CCNY / Fold change vs veh, CCNY / RFU, UFL1 / Fold change vs veh, UFL1 / RFU, COG3 / Fold change vs veh, COG3 / RFU, DIAPH2 / Fold change vs veh, DIAPH2 / RFU, SKA2 / Fold change vs veh, SKA2 / RFU, AFF3 / Fold change vs veh, AFF3 / RFU, LMF1 / Fold change vs veh, LMF1 / RFU, IPO11 / Fold change vs veh, IPO11 / RFU, DFFB / Fold change vs veh, DFFB / RFU, FOXP1 / Fold change vs veh, FOXP1 / RFU, CARD8 / Fold change vs veh, CARD8 / RFU, STRN3 / Fold change vs veh, STRN3 / RFU, ADK / Fold change vs veh, ADK / RFU, RASSF2 / Fold change vs veh, RASSF2 / RFU, WIPF1 / Fold change vs veh, WIPF1 / RFU, LARP1B / Fold change vs veh, LARP1B / RFU, RASA1 / Fold change vs veh, RASA1 / RFU, RB1 / Fold change vs veh, RB1 / RFU, PPFIA1 / Fold change vs veh, PPFIA1 / RFU, MAT2A / Fold change vs veh, MAT2A / RFU, CCT5 / Fold change vs veh, CCT5 / RFU, WDR92 / Fold change vs veh, WDR92 / RFU, CUX1 / Fold change vs veh, CUX1 / RFU, TTC7A / Fold change vs veh, TTC7A / RFU, TMEM135 / Fold change vs veh, TMEM135 / RFU, DEPTOR / Fold change vs veh, DEPTOR / RFU, CPM / Fold change vs veh, CPM / RFU, DNAJB6 / Fold change vs veh, DNAJB6 / RFU, CACNA2D3 / Fold change vs veh, CACNA2D3 / RFU, DTX4 / Fold change vs veh, DTX4 / RFU, TFCP2 / Fold change vs veh, TFCP2 / RFU, GMCL1 /// GMCL1P1 / Fold change vs veh, GMCL1 /// GMCL1P1 / RFU, AEBP2 / Fold change vs veh, AEBP2 / RFU, SNHG1 /// SNORD22 /// SNORD25 /// SNORD26 /// SNORD27 /// SNORD28 /// SNORD29 /// SNORD31 / Fold change vs veh, SNHG1 /// SNORD22 /// SNORD25 /// SNORD26 /// SNORD27 /// SNORD28 /// SNORD29 /// SNORD31 / Fold change (Aza/veh), C12orf56 (ProbeSet 11735607_a_at) / Fold change (ACY-1035/veh), C12orf56 (ProbeSet 11735607_a_at) / Fold change (Aza/veh), FGFR1OP (ProbeSet 11751329_s_at) / Fold change (ACY-1035/veh), FGFR1OP (ProbeSet 11751329_s_at) / Fold change (Aza/veh), VPS36 (ProbeSet 11739960_a_at) / Fold change (ACY-1035/veh), VPS36 (ProbeSet 11739960_a_at) / RFU SYPL1 (11715823_x_at) / Fold change /veh SYPL1 (11715823_x_at) / RFU IGFBP7 (11715501_s_at) / Fold change /veh IGFBP7 (11715501_s_at) / RFU REEP3 (11722064_at) / Fold change /veh REEP3 (11722064_at) / RFU IGLL1 (11728026_x_at) / Fold change /veh IGLL1 (11728026_x_at): dose or concentration left out as unconfirmed
Details: ProbeSet 11753616_s_at; LIST B

Nc1ccc(-c2cccs2)cc1NC(=O)c1ccc2c(c1)cc(C1CC1)n2CCN1CCOCC1 [ACY-1035]
Fold change vs veh, ARL8B: 0.90
